Data set [1] relates to CUTO17 cells (EGFR exon 20 insertion p.N771_773dupNPH). Nature of the data set: cells. The following applies: Homo sapiens, CUTO17, 72 h, read-out: IC50 proliferation.
Data set [2] concerns H661 cells (HER4 overexpression). Nature of the data set: cells. The format is cell-based. The following applies: Homo sapiens, NCI-H661, 72 h, read-out: IC50 proliferation.
In data set [3] the test system is CUTO18 cells (EGFR exon 20 insertion p.S768_D770dupSVD). Put plainly: cells. The note with it: Homo sapiens, 72 h, read-out: IC50 proliferation.
The subject of another data set is Calu-3 cells (HER2 amp). Nature of the data set: cells. The following applies: Homo sapiens, Calu-3, 72 h, read-out: IC50 proliferation. The data set is classed as cell-based.
In data set [4] the test system is CUTO14 cells (EGFR exon 20 insertion p.A767_V769dupASV). Nature of the data set: cells. The note with it: Homo sapiens, CUTO14, 72 h, read-out: IC50 proliferation.
In data set [5] the test system is EGFR phosphorylation (pEGFR) in CUTO14, CUTO17, and CUTO18.
For a further data set, the system named is H2170 cells (HER2 amp). Put plainly: cells. The data set is classed as cell-based. The note with it: Homo sapiens, NCI-H2170, 72 h, read-out: IC50 proliferation.
Data set [6] concerns H1781 cells (HER2 ex20ins). Put plainly: cells. The format is cell-based. The note with it: Homo sapiens, NCI-H1781, 72 h, read-out: IC50 proliferation.
For data set [7] the following is noted: cited from earlier work.
Data set [8] is described as follows: Mouse plasma protein binding. The data set is classed as in vitro ADME.
Data set [9] in a line: Human plasma protein binding. The format is in vitro ADME.
Data set [10] deals with MDA-MB-175vIII cells (DOC4-NRG1 fusion). Nature of the data set: cells. The format is cell-based. The note with it: Homo sapiens, 72 h, read-out: IC50 proliferation.
Data set [11] in a line: Afatinib plasma pharmacokinetics and human equivalent dose in nude mice. The format is in vivo.
Data set [12] in a line: Clinical plasma pharmacokinetics of afatinib. The data set is classed as in vivo. The note with it: human, po, 40 mg.

With `C=CC(=O)Nc1cc(Nc2nccc(-c3cn(C)c4ccccc34)n2)c(OC)cc1N(C)CCN(C)C` [Osimertinib], the IC50 in data set [1] came to 426 ± 21.5 nM; in data set [2], 4518 ± 2 nM; in data set [3], 647 ± 6.7 nM; in the data set with Calu-3 cells (HER2 amp), 188 ± 35.2 nM; in data set [4] it was 303 nM; in the data set on H2170 cells (HER2 amp), 113 ± 4.4 nM. The IC50 in [6] was 406 nM. Moreover, in data set [5], the “inhibition of EGFR phosphorylation (pEGFR)” value is reported as “showed inhibition at higher concentrations”.

As to `CN(C)C/C=C/C(=O)Nc1cc2c(Nc3ccc(F)c(Cl)c3)ncnc2cc1O[C@H]1CCOC1` [Afatinib], the “Cmax in patients at steady state” value in data set [7] (40mg PO daily) was 38 ng/mL. Also, the “plasma AUCtotal” value in data set [7] (human, 40 mg PO once daily) was 324 ng·h/mL. In data set [7] (read-out: Cmax in patients at steady state, 40mg PO daily), the peak concentration (Cmax) is 78 nM. The fraction unbound was 0.0577 in data set [8] and 0.0821 in data set [9]. Further, the IC50 with Calu-3 cells (HER2 amp) was found to be 31 ± 11.4 nM; in data set [10], 1.2 ± 3.1 nM; with H2170 cells (HER2 amp), 11 ± 2.9 nM; in [6], 66 nM. In addition, the “human equivalent dose (HED) in nude mice” value in [11] (extrapolation by linear regression to total AUC of 468 ng*hr/mL) was 6 mg/kg. Further, the “plasma AUCtotal required in mice to replicate human AUCfree” value in [11] (mice) stood at 468 ng·h/mL. The AUC in data set [12] was 27 ng·h/mL.

Broadly, the Cmax is the maximum level reached in the sampled fluid or tissue. One may read the fraction unbound as the share of the substance not bound to proteins or other matrix. One may read the AUC as concentration integrated over time. Low readings indicate less exposure, high ones more exposure.

The values above are taken from PMC7926264 (Clinical cancer research : an official journal of the …, 2020).
